# Measured values: patent publication EP0556482B1, “Propyl endopeptidase inhibitor” (SNOW BRAND MILK PRODUCTS CO., LTD., priority 1991, dated 1993)
# Read-outs that look alike come from different tables or passages of the source. *1 amine or outer side, *2 acyl side, *3 side chain or, on linkers, in order; H or OH if unused. Where a SMILES comes first, the peptide text is derived from it. Bridges are numbered along the chain shown (N, C = ends). [ ]: non-standard residue; d: D form. The star is where a group is joined. Undeca(2Z,4E)dienoyl(10-Me) = CC(C)CCCC/C=C/C=C\C(=O)*; Phg(3,5-Cl2-4-OH) = N[C@H](C(=O)O)c1cc(Cl)c(O)c(Cl)c1; X1 = N=C1NC[C@@H](C[C@@H](N[*:1])C(=O)[*:2])N1; X2 = N=C1NC[C@@H](C[C@H](N[*:1])C(=O)[*:2])N1; d(aThr) = C[C@@H](O)[C@@H](N)C(=O)O; dHpg = N[C@@H](C(=O)O)c1ccc(O)cc1; Hpg = N[C@H](C(=O)O)c1ccc(O)cc1; Cit = NC(=O)NCCC[C@H](N)C(=O)O; aThr = C[C@H](O)[C@H](N)C(=O)O; dOrn = NCCC[C@@H](N)C(=O)O
# Legend:
# [1] = molecular target: T1, prolyl endopeptidase derived from Flavobacterium (Elizabethkingia meningoseptica, UniProt P27028); assay type: biochemical; conditions: Table 1; enzyme from Flavobacterium; read-out: IC₅₀ (µM) Flavobacterium
# T1 construct: purchased Seikagaku Kogyo Co
# Description: (§1) The inhibitive activity of enduracidin A was measured by using a methanol solution of this compound.
# (§2) The inhibition rate was determined by the formula, [(A-B)/A] x 100 (%), wherein A represents a fluorescent concentration of liberated 7-AMC in the reaction of the control and B is a fluorescent concentration of liberated 7-AMC in the reaction to which a sample was added.
# [2] = molecular target: T2, prolyl endopeptidase derived from human placenta (Homo sapiens, UniProt P48147); test: Prolyl endopeptidase inhibitive activity, human placenta enzyme (fluorometric, Z-Gly-Pro-7-AMC substrate); assay type: biochemical; parameters: obtaining a supernatant, from which microsome fractions had been removed, as a prolyl endopeptidase fraction; from tissue; host or cells: human placenta, cytosol fraction (104,000 x g supernatant)
# T2 sequence (P48147 1-710): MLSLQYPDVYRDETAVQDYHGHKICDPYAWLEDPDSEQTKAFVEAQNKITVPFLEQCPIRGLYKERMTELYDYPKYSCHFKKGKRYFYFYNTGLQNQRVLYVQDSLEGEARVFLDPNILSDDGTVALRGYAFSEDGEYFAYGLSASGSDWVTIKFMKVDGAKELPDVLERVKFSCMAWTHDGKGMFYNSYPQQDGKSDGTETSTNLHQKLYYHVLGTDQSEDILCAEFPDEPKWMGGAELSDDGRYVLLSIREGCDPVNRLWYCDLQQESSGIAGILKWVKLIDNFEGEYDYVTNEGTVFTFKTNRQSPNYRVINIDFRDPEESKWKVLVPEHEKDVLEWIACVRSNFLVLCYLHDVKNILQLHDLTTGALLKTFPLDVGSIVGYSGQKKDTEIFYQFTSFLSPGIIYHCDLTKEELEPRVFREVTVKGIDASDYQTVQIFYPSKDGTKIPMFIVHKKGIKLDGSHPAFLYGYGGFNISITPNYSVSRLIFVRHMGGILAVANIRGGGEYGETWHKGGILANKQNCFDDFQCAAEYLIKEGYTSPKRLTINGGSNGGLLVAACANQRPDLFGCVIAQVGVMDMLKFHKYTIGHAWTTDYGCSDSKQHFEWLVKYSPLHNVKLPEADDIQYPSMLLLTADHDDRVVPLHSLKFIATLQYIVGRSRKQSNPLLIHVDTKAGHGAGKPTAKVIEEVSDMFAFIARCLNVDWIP
# Description: as §1
# (§3) The prolyl endopeptidase inhibitive activity in the present invention was measured by the following method. Prolyl endopeptidase from human placenta was prepared according to the method for preparing aromatase [Chem. Pharm. […] The placenta tissues were pulverized and homogenized with a 67 mM potassium phosphate buffer (pH 7.5) containing 5 mM DTT and 0.25 M sucrose. The homogenized solution was centrifuged at 10,000 x g for 30 minutes to obtain a supernatant.
# (§4) To carry out the enzyme reaction, 0.01 ml of each sample dissolved in methanol in various concentrations and 0.01 ml of the placenta cytosol fraction were added to 0.96 ml of a 0.1 M Tris-HCl buffer solution (pH 7.0), and the resulting solution was mixed and incubated at 37°C for 5 minutes. The reaction was initiated by the addition of 0.02 ml of a 2 mM solution of synthesized substrate, Z-Gly-Pro-7-AMC (a product of Cambridge Research Biochemicals), dissolved in 40% dioxane to said solution, and continued for 10 minutes at 37°C. After the reaction, 0.5 ml of a reaction termination agent (10 g of Triton X-100/95 ml, 1 M acetate buffer, pH 4.0) and 2 ml of water were added to measure 7-AMC (7-amino-4-methylcoumarin) liberated by the reaction at an excitation wavelength of 380 nm and an emission wavelength of 460 nm.
# as §2
# [3] = system: mouse; conditions: in vivo, ip; cited from earlier work
# [4] = system: rat; conditions: in vivo, iv; cited from earlier work
# [5] = molecular target: T2, prolyl endopeptidase derived from human placenta; test: Prolyl endopeptidase inhibitive activity, human placenta enzyme (fluorometric, Z-Gly-Pro-7-AMC substrate); assay type: biochemical; parameters: obtaining a supernatant, from which microsome fractions had been removed, as a prolyl endopeptidase fraction; from tissue; host or cells: human placenta, cytosol fraction (104,000 x g supernatant), crude enzyme
# Description: as §1, §3
# as §4, with “After the reaction, 0.5 ml of a reaction termination agent (10 g of Triton X-100/95 ml, 1 M acetate buffer, pH 4.0) and 2 ml of water were added to measure 7-AMC (7-amino-4-methylcoumarin) liberated by the reaction at an excitation wavelength of 380 nm and an emission wavelength of 460 nm.” left out
# as §2
# [6] = comparison of both enzymes, in words
# T1 sequence (P27028 21-705): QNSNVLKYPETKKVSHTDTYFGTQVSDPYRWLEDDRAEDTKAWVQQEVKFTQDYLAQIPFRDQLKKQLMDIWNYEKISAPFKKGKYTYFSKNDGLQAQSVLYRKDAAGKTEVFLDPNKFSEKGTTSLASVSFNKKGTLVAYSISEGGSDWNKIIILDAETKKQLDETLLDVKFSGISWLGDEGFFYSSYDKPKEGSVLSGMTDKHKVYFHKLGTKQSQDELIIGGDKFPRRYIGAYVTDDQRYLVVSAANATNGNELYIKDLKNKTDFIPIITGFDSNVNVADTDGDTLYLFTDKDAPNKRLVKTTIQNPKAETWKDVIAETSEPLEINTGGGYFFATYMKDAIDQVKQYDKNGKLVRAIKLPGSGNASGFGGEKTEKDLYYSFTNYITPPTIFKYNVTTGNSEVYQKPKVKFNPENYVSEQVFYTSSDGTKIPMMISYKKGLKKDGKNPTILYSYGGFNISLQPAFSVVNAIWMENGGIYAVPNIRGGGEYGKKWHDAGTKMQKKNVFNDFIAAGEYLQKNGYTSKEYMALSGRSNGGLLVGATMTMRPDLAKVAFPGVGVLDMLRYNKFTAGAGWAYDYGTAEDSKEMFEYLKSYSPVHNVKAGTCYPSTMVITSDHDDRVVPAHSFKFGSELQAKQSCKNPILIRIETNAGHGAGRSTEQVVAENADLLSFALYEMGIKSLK
smiles,measurement,setting,value
CC[C@H](C)[C@H](NC(=O)[C@H](Cc1ccccc1)NC(=O)[C@@H](NC(=O)[C@H](Cc1c[nH]cn1)NC(=O)CNC(=O)CNC(=O)[C@H](Cc1ccccc1)NC(=O)[C@H](CC(C)C)NC(=O)[C@@H]1CC(=O)NCC(=O)N[C@@H](Cc2ccc(O)cc2)C(=O)N2CCC[C@H]2C(=O)N[C@@H](Cc2c[nH]c3ccccc23)C(=O)N[C@@H](Cc2c[nH]c3ccccc23)C(=O)N[C@@H](CC(=O)O)C(=O)N[C@@H](Cc2ccc(O)cc2)C(=O)N[C@@H](CCCNC(=N)N)C(=O)N1)[C@@H](C)O)C(=O)N[C@@H](CO)C(=O)N1CCC[C@H]1C(=O)O [SNA-115] (GYPWWDYRDLFGGHTFISP-OH; lactam N-9),IC50,[1],0.35 µM
same,IC50,"[2]; Table 1, enzyme from human placenta, read-out: IC₅₀ (µM) Human placenta",0.22 µM
same,specificity: inhibitive activity to enzyme from human placenta compared with enzyme from Flavobacterium,[2]; [6],almost the same degree of inhibitive activity
"CC(C)CCCC/C=C/C=C\C(=O)N[C@@H](CC(=O)O)C(=O)N[C@@H]1C(=O)N[C@H](c2ccc(O)cc2)C(=O)N[C@H](CCCN)C(=O)N[C@H]([C@@H](C)O)C(=O)N[C@@H](c2ccc(O)cc2)C(=O)N[C@H](c2ccc(O)cc2)C(=O)N[C@@H]([C@H](C)O)C(=O)N[C@@H](CCCNC(N)=O)C(=O)N[C@H](C[C@@H]2CNC(=N)N2)C(=O)N[C@@H](c2ccc(O)cc2)C(=O)N[C@H](CO)C(=O)N[C@@H](c2cc(Cl)c(O)c(Cl)c2)C(=O)NCC(=O)N[C@@H](C[C@@H]2CNC(=N)N2)C(=O)N[C@H](C)C(=O)N[C@@H](c2ccc(O)cc2)C(=O)O[C@@H]1C [Enduracidin A] ({Undeca(2Z,4E)dienoyl(10-Me)}-DT[dHpg][dOrn][d(aThr)][Hpg][dHpg][aThr][Cit][X1][Hpg][dS][Phg(3,5-Cl2-4-OH)]G[X2][dA][Hpg]; ester 2-C)",acute toxicity LD₅₀,[3],greater than 400 mg/kg
same,acute toxicity LD₅₀,[4],> 300 mg/kg
same,mode of inhibition,"[5]; Dixon Plot, enzyme from human placenta",noncompetitive inhibition
same,specificity: inhibitive activity to enzyme from human placenta compared with enzyme from Flavobacterium,[5]; [6],much higher specificity to the enzyme derived from human placenta
CN[C@@H]1C[C@H]2O[C@@](C)([C@@H]1OC)n1c3ccccc3c3c4c(c5c6ccccc6n2c5c31)C(=O)NC4 [Staurosporine],IC50,[2],> 107 µM
same,inhibitive activity to the enzyme derived from human placenta,[2]; result in words,very weak inhibitive activity
